“And” between values parts separate entries of the source, which are not always exact repeats. Identical values can stand only once.
Experiments:
Type in all cases: in vivo
[1] = system: mouse transplantable S180 solid tumor; test: Effects of oral administration of the compound powder on mouse S180 solid tumor; conditions: Dosage 0.2 ml/10 g × 9
Protocol: (§1) A suspension of 10% was prepared from the traditional Chinese medicine compound powder provided by the present invention and then stored in a refrigerator. The suspension would be shaken up before use. Tumor strain: Heps, S180 and ESC were all commercially available products. Animal: Kunming mice provided by the animal laboratories of Shenyang Pharmaceutical University and China Pharmaceutical University. Method: referring to the following literatures: Literature 1: chief editor Xu Shuyun. Methodology of Pharmacological Experiment, Beijing: People's Medical Publishing House 1982, 1115-1125. Literature 2: China Academic Conference on Tumor Pharmacology and Chemotherapy: In-vivo Efficacy Test Procedures of Anticancer Drugs, internal data. 1989. 2. Effects of the Traditional Chinese Medicine Compound Powder on S180 Solid Tumor […]

[2] = system: mouse Ehrlich Ascites Cancer (EAC) solid tumor; test: Effects of oral administration of the compound powder on mouse Ehrlich Ascites Cancer (EAC) solid tumor; conditions: Dosage 0.2 ml/10 g × 9
Protocol: as §1, with “1989. 3.” for “1989. 2.”, “on ESC” for “on S180”

[3] = system: mouse transplantable Heps solid tumor; test: Effects of oral administration of the compound powder on mouse Heps solid tumor; conditions: for Inhibition rate / Tumor weight (g) (X ± SD): mouse Heps solid tumor; for Weight (g) Beginning: body weight at beginning; for Weight (g) Beginning / Weight (g) End: Heps; for Weight (g) End: body weight at end
Protocol: as §1, with “1989. 1.” for “1989. 2.”, “on Heps” for “on S180”

SMILES: O=c1[nH]cc(F)c(=O)[nH]1 [0.15% 5-Fu, 5-Fu]
- Inhibition rate ([1]; mouse S180 solid tumor): 61.80% and 60.53% and 42.62%
- Tumor weight (g) (X ± SD) ([1]; mouse S180 solid tumor): 1.36 ± 0.44 g and 1.33 ± 0.31 g and 1.87 ± 1.03 g
- Weight (g) Beginning ([1]; body weight at beginning, S180): 21.80 g and 21.30 g and 20.78 g
- Weight (g) End ([1]; body weight at end, S180): 24.70 g and 23.60 g and 20.00 g
- Inhibition rate ([2]; mouse EAC solid tumor): 64.85% and 66.85% and 65.36%
- Tumor weight (g) (X ± SD) ([2]; mouse EAC solid tumor): 1.23 ± 0.43 g and 1.31 ± 0.65 g and 1.33 ± 0.63 g
- Weight (g) Beginning ([2]; body weight at beginning, EAC): 20.90 g and 21.45 g and 20.85 g
- Weight (g) End ([2]; body weight at end, EAC): 26.80 g and 22.20 g and 26.90 g
- Inhibition rate ([3]; Dosage 0.1 ml/10 g × 8): 65.75% and 56.62%
- Tumor weight (g) (X ± SD) ([3]; Dosage 0.1 ml/10 g × 8): 1.12 ± 0.85 g and 0.59 ± 0.27 g
- Inhibition rate ([3]; Dosage 0.1 ml/10 g × 9): 58.55%
- Tumor weight (g) (X ± SD) ([3]; Dosage 0.1 ml/10 g × 9): 1.05 ± 0.54 g
- Weight (g) Beginning ([3]; Dosage 0.1 ml/10 g × 8): 21.30 g and 18.95 g
- Weight (g) Beginning ([3]; Dosage 0.1 ml/10 g × 9): 21.00 g
- Weight (g) End ([3]; Dosage 0.1 ml/10 g × 8): 24.80 g and 20.22 g
- Weight (g) End ([3]; Dosage 0.1 ml/10 g × 9): 25.86 g
